In patent US20240415919A1, “COMPOSITIONS AND METHODS FOR TREATMENT OF AUTOIMMUNE DISORDERS AND CANCER” (Dana-Farber Cancer Institute, Inc., priority 2021, published 2024):
Where “and” joins values, the source holds several entries; their conditions need not be identical. Equal values may be shown once. Entries after “also recorded” stand apart in the source; their conditions may differ.

Assays:
FL9.2 T cells = assay: FL9 peptide immunization of hosts adoptively transferred with FL9.2 T cells; assay type: in vivo, mouse; details: i.p. immunization with peptide in CFA; CD45.1+ B6 or TCRα-/- hosts
Protocol: CD45.1+B6 hosts were adoptively transferred with FL9.2 T cells and immunized i.p. with FL9 in CFA or no peptide (CFA alone) on day 0. Three days later, activation (CD69) proliferation of FL9.2 T cells (Ki67) was measured.
(§1) CD45.1^+ B6 or TCRα^−/− mice were transferred with CFSE labelled 2×10^6 FL9.2 Tg T cells followed by i.p. immunization with 100 μg FL9 or FL9-68 peptides in CFA. Proliferation and activation of FL9.2 Tg T cells in the adoptive hosts were analzyed by assessing CFSE dilution, Ki67 and CD69 expression at day 3 and 6 after transfer.
as §1, with “CD45.1^+B6” for “CD45.1^+ B6”

[1] = system: I-Ab/Ova323-339 Tet+ CD4 cells; assay: FL9-68 vaccination followed by Ova323-339/CFA immunization; assay type: in vivo, mouse
Protocol: FIG. 58(E) CD45.1^+ B6 mice that were vaccinated with FL9-68 in CFA or CFA alone on day 0 were immunized with Ova323-339 peptide in CFA on day 6. The frequency of I-Ab/Ova323-339 Tet^+ CD4 cells in activated (CD44^+) CD4 cells in the spleen and dLN was analyzed on day 14.

[2] = system: fully-mismatched kidney transplants; assay: BALB/c to B6 kidney transplantation with FL9-SA vaccination; assay type: in vivo, mouse
Protocol: The left kidney of BALB/c mice (H-2^d) was recovered using a full-length ureter and transplanted into a B6 host (H-2^b). The ureter of the remaining native kidney was then ligated on post-operative day 2-4 to inhibit native kidney function. Surgical success was determined if mice survived seven days post-surgery (POD). Transplanted B6 hosts were treated intraperitoneally with FL9-SA (50 μg), or PBS emulsified in Adjuvant (Addavax™), once a week starting POD2. On day 20 following kidney transplantation (n=5-7/group), allograft draining lymphoid tissues were assessed for FL9-specific Treg (Qa-1-FL9 Tet^+), Tfh, GC B and plasma cells, DSA levels in sera, capillary C4d deposition and gross anatomy of kidney allografts. Survival of kidney allografts was measured by survival of recipients with absence of native kidney function.

EL4 tumor cells (Qa-1+) = assay: EL4 tumor growth in B6 mice; assay type: in vivo, mouse; details: EL4 (Qa-1 WT) in B6 mice; vs isotype control / IFA alone; listed as FL9-68 SA
Protocol: FIG. 9A-B provides a graphical representation showing that the depletion of CD8 Treg enhances anti-tumor immune responses. WT B6 mice were inoculated with 2×10^5 EL4 (Qa-1 WT) orEL4-Qa-1 KO cells. Mice received EL4 WT or EL4 Qa-1 KO cells were treated with four different conditions: 1) PBS/IFA+ isotype control Ab (mIgG1), 2) PBS/IFA+ anti-Ly49F Ab, 3) PBS/IFA+anti-Qa-1 Ab and 4) FL9.68/IFA+isotype Ab (mIgG1). 100 ug of FL9.68 peptide (day 0 and day 10), 50 ug of anti-Ly49F Ab and 100 ug of anti-Qa-1 Ab (day 0, 3 and 6) were injected respectively. A) Status of Ly49+CD8 cells in the blood at day 3 and 6 after tumor induction (panel A). Tumor growth in mice inoculated with EL4 WT (left) andEL4 Qa-1 KO (right) tumor cells until day 7. […] This effect was not observed in mice inoculated with EL4-Qa-1KO tumor cells (panel B).

FL9 T cells = assay: In vitro FL9 T cell proliferation and killing of activated CD4 cells; assay type: cell-based

FYAEATLML [FL9-68, FL9 peptide variant containing a P→L substitution at pos 7; superagonist for CD8 Treg]
in vivo activation/proliferation of transferred FL9 TCR+ CD8 T cells (FL9.2 T cells): activated FL9 TCR^+ CD8 T cells; also recorded: activates FL9 T cells in vivo
inhibition of the response of I-Ab/Ova323-339 tet+ CD4 cells ([1]; FL9-68 in CFA day 0, Ova323-339/CFA day 6, analysis day 14): 50% and > 50%
numbers or percent of non-specifically activated CD4 cells ([1]; same experiment as E6): did not reduce the numbers or percent of non-specifically activated CD4 cells
CD44+ CD4 T-cell memory responses to irradiated donor lymphocytes ([2]; CD4+ T cells from B6 hosts): reduced CD44^+ CD4 T-cell memory responses
increase in FL9-specific Treg measured by FL9-Qa-1 tetramers ([2]; allograft-draining lymph nodes, day 20 after kidney transplantation): > 7 fold
mean survival time of kidney allograft ([2]; controls 20.5 days): 40 days
donor-specific antibody (DSA) ([2]; kidney graft recipients): markedly reduced donor specific Ab generation; also recorded: significant decrease in DSA
GC response: frequency of Tfh, activated GC B and plasma cells ([2]; kidney graft recipients, vs IFA alone): markedly reduced the GC response
C4d deposition in peritubular capillaries of kidney allografts ([2]; mouse, in vivo): reduced C4d deposition
EL4 tumor growth (EL4 tumor cells (Qa-1+)): facilitated tumor growth
proliferation of FL9 T cells and killing of activated CD4 cells (FL9 T cells): promoted proliferation of FL9 T cells leading to enhanced killing of activated CD4 cells
